Laboratory results published in patent US20260224588A1, “BENZODIAZEPINONE-DERIVED INHIBITORS OF EGFR AND HER2” (The Research Foundation for the State University of New York, priority 2023, published 2026).

Tests used:
ALK(C1156Y) = ALK(C1156Y) (Homo sapiens, UniProt Q9UM73, C1156Y); experiment: KINOMEscan; format: binding; details: 1 μM of compound 4; read-out: POC
CLK4 = CLK4 (Homo sapiens, UniProt Q9HAZ1); experiment: KINOMEscan; format: binding; details: 1 μM of compound 4; read-out: POC
DAPK2 = DAPK2 (Homo sapiens, UniProt Q9UIK4); experiment: KINOMEscan; format: binding; details: 1 μM of compound 4; read-out: POC
DRAK1 = DRAK1 (Homo sapiens, UniProt Q9UEE5); experiment: KINOMEscan; format: binding; details: 1 μM of compound 4; read-out: POC
FRK = target: T1, FRK (Homo sapiens, UniProt P42685); experiment: KINOMEscan; format: binding; details: 1 μM of compound 4; read-out: POC
T1 construct: purchased Eurofins DiscoverX Corporation
T1 sequence (P42685 whole entry): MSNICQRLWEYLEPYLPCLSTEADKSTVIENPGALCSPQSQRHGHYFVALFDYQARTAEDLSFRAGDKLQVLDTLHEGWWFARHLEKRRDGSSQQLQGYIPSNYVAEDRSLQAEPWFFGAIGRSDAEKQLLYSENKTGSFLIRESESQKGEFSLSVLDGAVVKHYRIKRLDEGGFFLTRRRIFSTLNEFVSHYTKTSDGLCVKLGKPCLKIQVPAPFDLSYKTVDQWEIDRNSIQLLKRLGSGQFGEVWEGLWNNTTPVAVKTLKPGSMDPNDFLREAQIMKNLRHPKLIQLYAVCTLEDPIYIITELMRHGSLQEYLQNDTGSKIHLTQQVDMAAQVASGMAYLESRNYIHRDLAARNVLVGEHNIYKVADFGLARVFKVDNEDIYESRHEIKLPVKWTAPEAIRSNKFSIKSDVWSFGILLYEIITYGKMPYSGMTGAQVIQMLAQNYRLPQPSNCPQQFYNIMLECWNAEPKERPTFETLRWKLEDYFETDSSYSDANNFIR

AXL = AXL (Homo sapiens, UniProt P30530); experiment: KINOMEscan; format: binding; details: 1 μM of compound 4; read-out: POC
Chain of AXL (P30530 26-894): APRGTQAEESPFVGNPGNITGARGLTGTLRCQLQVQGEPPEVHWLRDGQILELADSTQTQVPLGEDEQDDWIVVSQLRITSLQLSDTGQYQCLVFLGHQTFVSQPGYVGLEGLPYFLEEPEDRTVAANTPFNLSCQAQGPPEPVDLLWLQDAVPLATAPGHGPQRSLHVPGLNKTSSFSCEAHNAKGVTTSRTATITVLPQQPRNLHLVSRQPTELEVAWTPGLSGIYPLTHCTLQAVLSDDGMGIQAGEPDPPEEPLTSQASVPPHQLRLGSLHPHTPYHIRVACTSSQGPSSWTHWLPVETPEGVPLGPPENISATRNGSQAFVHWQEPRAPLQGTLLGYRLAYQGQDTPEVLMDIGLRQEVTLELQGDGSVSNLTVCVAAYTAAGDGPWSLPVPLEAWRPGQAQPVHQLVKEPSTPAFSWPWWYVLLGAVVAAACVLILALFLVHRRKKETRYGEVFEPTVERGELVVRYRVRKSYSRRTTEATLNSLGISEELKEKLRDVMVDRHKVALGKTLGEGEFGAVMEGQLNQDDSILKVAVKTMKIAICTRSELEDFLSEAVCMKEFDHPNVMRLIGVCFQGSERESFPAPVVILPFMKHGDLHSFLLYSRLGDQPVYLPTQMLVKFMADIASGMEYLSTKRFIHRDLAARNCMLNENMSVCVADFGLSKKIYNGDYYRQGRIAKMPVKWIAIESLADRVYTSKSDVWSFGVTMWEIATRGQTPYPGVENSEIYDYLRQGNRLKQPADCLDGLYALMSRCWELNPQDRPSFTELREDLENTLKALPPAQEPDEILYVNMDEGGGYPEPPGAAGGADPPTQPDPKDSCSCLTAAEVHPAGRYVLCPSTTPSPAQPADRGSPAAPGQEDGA

ANKK1 = ANKK1 (Homo sapiens, UniProt Q8NFD2); experiment: KINOMEscan; format: binding; details: 1 μM of compound 4; read-out: POC
Chain of ANKK1 (Q8NFD2 whole entry): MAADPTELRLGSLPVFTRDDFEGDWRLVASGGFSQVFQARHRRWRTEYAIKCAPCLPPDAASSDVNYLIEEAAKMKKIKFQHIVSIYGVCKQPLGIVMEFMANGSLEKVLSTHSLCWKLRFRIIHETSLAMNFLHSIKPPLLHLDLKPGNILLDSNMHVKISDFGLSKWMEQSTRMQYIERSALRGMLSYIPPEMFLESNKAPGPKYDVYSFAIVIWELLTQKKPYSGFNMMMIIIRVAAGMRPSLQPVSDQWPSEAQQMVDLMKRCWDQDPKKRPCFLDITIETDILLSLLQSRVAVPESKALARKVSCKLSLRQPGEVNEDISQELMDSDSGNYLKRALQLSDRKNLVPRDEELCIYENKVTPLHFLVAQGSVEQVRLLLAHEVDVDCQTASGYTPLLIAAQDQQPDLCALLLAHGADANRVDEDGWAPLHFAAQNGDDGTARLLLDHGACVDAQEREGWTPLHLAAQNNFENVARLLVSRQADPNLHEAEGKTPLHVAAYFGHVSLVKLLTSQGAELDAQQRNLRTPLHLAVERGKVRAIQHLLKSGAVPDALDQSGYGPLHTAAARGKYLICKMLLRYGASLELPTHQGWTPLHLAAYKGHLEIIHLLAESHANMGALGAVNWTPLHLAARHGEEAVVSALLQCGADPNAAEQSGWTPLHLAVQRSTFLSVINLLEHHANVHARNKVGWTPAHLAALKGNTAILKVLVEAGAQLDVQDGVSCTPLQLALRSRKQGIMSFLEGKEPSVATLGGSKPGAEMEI

LKB1 = LKB1 (Homo sapiens, UniProt Q15831); experiment: KINOMEscan; format: binding; details: 1 μM of compound 4; read-out: POC
Chain of LKB1 (Q15831 whole entry): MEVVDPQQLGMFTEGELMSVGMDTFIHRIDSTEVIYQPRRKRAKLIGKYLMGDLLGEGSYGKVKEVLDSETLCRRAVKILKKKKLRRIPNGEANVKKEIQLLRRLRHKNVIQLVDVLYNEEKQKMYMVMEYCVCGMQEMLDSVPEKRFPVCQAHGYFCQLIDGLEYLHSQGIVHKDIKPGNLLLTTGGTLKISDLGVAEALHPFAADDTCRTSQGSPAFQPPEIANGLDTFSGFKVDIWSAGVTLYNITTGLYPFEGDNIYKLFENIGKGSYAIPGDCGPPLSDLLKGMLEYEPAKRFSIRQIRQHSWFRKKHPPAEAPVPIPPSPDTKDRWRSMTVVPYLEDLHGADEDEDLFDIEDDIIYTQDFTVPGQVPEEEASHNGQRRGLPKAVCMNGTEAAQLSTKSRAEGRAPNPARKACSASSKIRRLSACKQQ

ARK5 = ARK5 (Homo sapiens, UniProt O60285); experiment: KINOMEscan; format: binding; details: 1 μM of compound 4; read-out: POC
CASK = CASK (Homo sapiens, UniProt O14936); experiment: KINOMEscan; format: binding; details: 1 μM of compound 4; read-out: POC
ROCK2 = target: T2, ROCK2 (Homo sapiens, UniProt O75116); experiment: KINOMEscan; format: binding; details: 1 μM of compound 4; read-out: POC
T2 construct: purchased Eurofins DiscoverX Corporation (KINOMEscan screening service)

ZAK = target: T3, ZAK (Homo sapiens, UniProt Q9NYL2); experiment: KINOMEscan; format: binding; details: 1 μM of compound 4; read-out: POC
T3 construct: purchased Eurofins DiscoverX
T3 sequence (Q9NYL2 whole entry): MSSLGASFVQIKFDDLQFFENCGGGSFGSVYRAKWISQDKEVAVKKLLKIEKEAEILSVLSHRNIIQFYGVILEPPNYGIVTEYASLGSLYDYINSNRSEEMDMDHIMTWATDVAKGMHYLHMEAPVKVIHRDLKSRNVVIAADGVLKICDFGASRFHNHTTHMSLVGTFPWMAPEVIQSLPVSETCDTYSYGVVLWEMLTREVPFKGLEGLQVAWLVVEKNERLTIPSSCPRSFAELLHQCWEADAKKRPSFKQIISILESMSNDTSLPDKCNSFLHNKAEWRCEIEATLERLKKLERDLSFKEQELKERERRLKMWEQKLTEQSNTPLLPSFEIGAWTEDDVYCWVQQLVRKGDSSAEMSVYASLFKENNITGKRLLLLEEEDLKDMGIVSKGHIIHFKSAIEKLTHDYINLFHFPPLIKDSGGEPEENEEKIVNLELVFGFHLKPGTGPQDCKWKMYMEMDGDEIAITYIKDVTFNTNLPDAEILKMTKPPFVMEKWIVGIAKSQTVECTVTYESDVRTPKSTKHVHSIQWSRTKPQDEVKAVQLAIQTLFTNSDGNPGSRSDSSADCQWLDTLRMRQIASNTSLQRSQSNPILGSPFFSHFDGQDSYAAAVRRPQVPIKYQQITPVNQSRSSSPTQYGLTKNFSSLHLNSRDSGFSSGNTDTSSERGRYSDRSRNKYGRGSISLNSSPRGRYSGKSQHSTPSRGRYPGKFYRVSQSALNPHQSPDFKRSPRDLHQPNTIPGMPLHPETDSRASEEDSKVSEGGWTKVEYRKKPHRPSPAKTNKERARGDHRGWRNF

MKNK2 = MKNK2 (Homo sapiens, UniProt Q9HBH9); experiment: KINOMEscan; format: binding; details: 1 μM of compound 4; read-out: POC
[1] = target: T4, RSK2(Kin.Dom.1-N-terminal) (Homo sapiens, UniProt P51812); experiment: KINOMEscan; format: binding; details: 1 μM of compound 4; read-out: POC
T4 construct: RSK2(Kin.Dom.1-N-terminal); purchased Eurofins DiscoverX Corporation (KINOMEscan screening service)

[2] = target: T5, TYK2(JH2domain-pseudokinase) (Homo sapiens, UniProt P29597); experiment: KINOMEscan; format: binding; details: 1 μM of compound 4; read-out: POC
T5 construct: TYK2(JH2domain-pseudokinase); purchased Eurofins DiscoverX

KIT-autoinhibited = KIT-autoinhibited (Homo sapiens, UniProt P10721); experiment: KINOMEscan; format: binding; details: 1 μM of compound 4; read-out: POC
Chain of KIT-autoinhibited (P10721 544-976 limits assumed): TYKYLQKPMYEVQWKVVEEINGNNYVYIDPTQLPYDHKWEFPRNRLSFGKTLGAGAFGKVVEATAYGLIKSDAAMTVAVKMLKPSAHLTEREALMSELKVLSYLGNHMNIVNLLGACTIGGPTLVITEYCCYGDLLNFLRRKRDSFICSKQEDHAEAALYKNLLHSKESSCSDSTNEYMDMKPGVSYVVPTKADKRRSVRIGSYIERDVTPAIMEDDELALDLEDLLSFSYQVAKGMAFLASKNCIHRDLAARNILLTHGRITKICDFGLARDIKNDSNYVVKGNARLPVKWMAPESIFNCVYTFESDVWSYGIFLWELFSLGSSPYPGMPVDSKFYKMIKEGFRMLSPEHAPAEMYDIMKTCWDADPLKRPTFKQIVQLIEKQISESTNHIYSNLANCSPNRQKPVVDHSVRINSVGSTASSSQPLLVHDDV

IGF1R = IGF1R (Homo sapiens, UniProt P08069); experiment: KINOMEscan; format: binding; details: 1 μM of compound 4; read-out: POC
YSK1 = target: T6, YSK1 (Homo sapiens, UniProt O00506); experiment: KINOMEscan; format: binding; details: 1 μM of compound 4; read-out: POC
T6 construct: purchased Eurofins DiscoverX

HUNK = HUNK (Homo sapiens, UniProt P57058); experiment: KINOMEscan; format: binding; details: 1 μM of compound 4; read-out: POC
HIPK2 = target: T7, HIPK2 (Homo sapiens, UniProt Q9H2X6); experiment: KINOMEscan; format: binding; details: 1 μM of compound 4; read-out: POC
T7 construct: purchased Eurofins DiscoverX Corporation

[3] = target: T8, ABL1(F317L)-phosphorylated (Homo sapiens, UniProt P00519, F317L); experiment: KINOMEscan; format: binding; details: 1 μM of compound 4; read-out: POC
T8 construct: purchased Eurofins DiscoverX Corporation
T8 sequence (P00519 whole entry F317L): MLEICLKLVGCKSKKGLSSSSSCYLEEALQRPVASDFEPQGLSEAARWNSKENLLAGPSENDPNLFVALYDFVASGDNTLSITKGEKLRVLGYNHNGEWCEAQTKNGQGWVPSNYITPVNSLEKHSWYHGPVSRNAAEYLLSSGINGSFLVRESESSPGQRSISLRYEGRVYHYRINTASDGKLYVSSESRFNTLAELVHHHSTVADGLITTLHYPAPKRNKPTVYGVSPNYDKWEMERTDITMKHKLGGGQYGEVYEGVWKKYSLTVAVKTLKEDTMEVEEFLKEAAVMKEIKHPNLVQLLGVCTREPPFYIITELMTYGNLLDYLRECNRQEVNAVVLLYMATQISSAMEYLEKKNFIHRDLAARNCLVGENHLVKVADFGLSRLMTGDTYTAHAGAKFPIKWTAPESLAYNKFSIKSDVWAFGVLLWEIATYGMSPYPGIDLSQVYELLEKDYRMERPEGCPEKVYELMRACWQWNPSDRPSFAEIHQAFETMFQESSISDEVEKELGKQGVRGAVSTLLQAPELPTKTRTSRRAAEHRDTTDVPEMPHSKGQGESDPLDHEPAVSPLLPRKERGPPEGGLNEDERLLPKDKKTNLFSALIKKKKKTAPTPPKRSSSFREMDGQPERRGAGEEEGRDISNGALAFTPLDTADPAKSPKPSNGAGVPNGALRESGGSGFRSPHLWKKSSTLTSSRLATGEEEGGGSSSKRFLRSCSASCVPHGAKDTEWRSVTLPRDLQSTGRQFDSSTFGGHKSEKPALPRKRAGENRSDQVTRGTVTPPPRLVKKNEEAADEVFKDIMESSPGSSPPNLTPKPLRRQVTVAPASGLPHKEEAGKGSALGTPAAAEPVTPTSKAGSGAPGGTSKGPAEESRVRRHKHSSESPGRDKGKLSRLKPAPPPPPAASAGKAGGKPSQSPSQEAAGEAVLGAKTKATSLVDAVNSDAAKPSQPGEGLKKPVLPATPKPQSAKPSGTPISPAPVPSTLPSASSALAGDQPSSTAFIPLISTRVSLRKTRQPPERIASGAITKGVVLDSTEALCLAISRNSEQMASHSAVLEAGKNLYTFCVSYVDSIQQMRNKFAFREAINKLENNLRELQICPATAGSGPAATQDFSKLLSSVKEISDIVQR

[4] = target: T9, EGFR L858R/T790M/C797S kinase domain (Homo sapiens, UniProt P00533, C797S/L858R/T790M); experiment: HTRF-based activity assay; format: biochemical; details: 100 μM ATP, enzyme 0.02 nM, read-out: Biochemical EGFR IC50, LRTMCS
T9 construct: The EGFR kinase domain (residues 696-1022) was cloned into pTriEx; 6xHis (N, cleaved yes); GST (N, cleaved yes); made in house; host or cells: SF9 insect cells (baculovirus)
Protocol: Protein expression and purification. The EGFR kinase domain (residues 696-1022) was cloned into pTriEx with an N-terminal 6×His-glutathione S-transferase (GST) fusion tag followed by a TEV protease cleavage site. EGFR WT, L858R, L858R/T790M, L858R/T790M/C797S was expressed after baculoviral infection in SF9 cells and EGFR(T790M/V948R) was expressed in SF21 cells. Briefly, cells were pelleted and resuspended in lysis buffer composed of 50 mM Tris pH 8.0, 500 mM NaCl, 1 mM tris(2-carboxyethyl)phosphine (TCEP), and 5% glycerol. Cells were lysed via sonication prior to ultracentrifugation at >200,000 g for 1 h. Imidazole pH 8.0 was added to the supernatant for a final concentration of 40 mM and flowed through a column containing Ni-NTA agarose beads. The resin was washed with lysis buffer supplemented with 40 mM imidazole and eluted with lysis buffer containing 200 mM imidazole. Eluted EGFR kinase domain was dialyzed overnight in the presence of 5% (w/w) TEV protease against dialysis buffer containing 50 mM Tris pH 8.0, 500 mM NaCl, 1 mM TCEP, and 5% glycerol. The cleaved protein was passed through Ni-NTA resin to remove the 6×His-GST fusion protein and TEV prior to size exclusion chromatography on a prep-grade Superdex S200 column in 50 mM Tris pH 8.0, 500 mM NaCl, 1 mM TCEP, and 5% glycerol.
HTRF Assays. Biochemical assays for EGFR domains were carried out using a homogeneous time-resolved fluorescence (HTRF) KinEASE-TK (Cisbio) assay, as described previously. Assays were optimized for ATP concentration of 100 μM with enzyme concentrations WT EGFR 10 nM, L858R 0.1 nM, L858R/T790M at 0.02 nM and L858R/T790M/C797S at 0.02 nM. Inhibitor compounds in DMSO were dispensed directly in 384-well plates with the D300 digital dispenser (Hewlett Packard) followed immediately by the addition of aqueous buffered solutions using the Multidrop Combi Reagent Dispenser (Thermo Fischer). […] The curves were fitted using a non-linear regression model with a sigmoidal dose response.

RIOK2 = target: T10, RIOK2 (Homo sapiens, UniProt Q9BVS4); experiment: KINOMEscan; format: binding; details: 1 μM of compound 4; read-out: POC
T10 construct: purchased Eurofins DiscoverX Corporation (KINOMEscan screening service)

[5] = target: T11, RSK1(Kin.Dom.2-C-terminal) (Homo sapiens, UniProt Q15418); experiment: KINOMEscan; format: binding; details: 1 μM of compound 4; read-out: POC
T11 construct: RSK1(Kin.Dom.2-C-terminal); purchased Eurofins DiscoverX Corporation (KINOMEscan screening service)

SMILES: C=CC(=O)Nc1ccc(OC)c(Nc2cc(-c3[nH]c(CC)nc3-c3cccc(NC(=O)c4cccc5c4NC(=O)c4ccccc4N5)c3)ccn2)c1 [Compound 4, N-(3-(5-(2-((5-Acrylamido-2-methoxyphenyl)amino)pyridin-4-yl)-2-ethyl-1H-imidazol-4-yl)phenyl)-11-oxo-10,11-dihydro-5H-dibenzo[b,e][1,4]diazepine-9-carboxamide]
- remaining binding at 1 µM (ALK(C1156Y)): 87%
- remaining binding at 1 µM (CLK4): 100%
- remaining binding at 1 µM (DAPK2): 100%
- remaining binding at 1 µM (DRAK1): 84%
- remaining binding at 1 µM (FRK): 20%
- remaining binding at 1 µM (AXL): 98%
- remaining binding at 1 µM (ANKK1): 87%
- remaining binding at 1 µM (LKB1): 100%
- remaining binding at 1 µM (ARK5): 100%
- remaining binding at 1 µM (CASK): 97%
- remaining binding at 1 µM (ROCK2): 94%
- remaining binding at 1 µM (ZAK): 87%
- remaining binding at 1 µM (MKNK2): 100%
- remaining binding at 1 µM [1]: 100%
- remaining binding at 1 µM [2]: 100%
- remaining binding at 1 µM (KIT-autoinhibited): 100%
- remaining binding at 1 µM (IGF1R): 90%
- remaining binding at 1 µM (YSK1): 76%
- remaining binding at 1 µM (HUNK): 32%
- remaining binding at 1 µM (HIPK2): 100%
- remaining binding at 1 µM [3]: 85%
- IC50 [4]: 1.8 ± 0.3 nM
- remaining binding at 1 µM (RIOK2): 83%
- remaining binding at 1 µM [5]: 75%
